We go through 2 compounds from patent publication US4971965A, “Antibiotics TAN-1057” (Takeda Chemical Industries, Ltd., priority 1988, dated 1990).

Data set [1] concerns Acinetobacter calcoaceticus IFO 12552. In kind it is cell-based. The settings on record: IFO12552, agar dilution, DY medium, pH unadjusted, approx. 10^6 CFU/ml, read-out: Minimum Inhibitory Conc. (MIC). The method, then:
(§1) (Note 1) Measurement was conducted by employing a medium consisting of DY
(§2) medium [Bacto Antibiotic Medium 3 (Difco Laboratories, USA)(17.5 g), Bact
(§3) yeast extract(Difco Laboratories, USA)(5.0 g) and distilled water(pH
(§4) unadjusted)(1000 ml)], using approximately 10^6 colony forming unit/m
(§5) of inoculum, by means of the agar dilution method.
(In agar dilution, organisms are placed on agar that contains the substance at set levels.)

In data set [2] the test system is Aeromonas caviae NCW. In kind it is cell-based. The note with it: agar dilution, DY medium, pH unadjusted, approx. 10^6 CFU/ml, read-out: Minimum Inhibitory Conc. (MIC). The protocol:
as §1, §2, §3, §4, §5

In data set [3] the test system is Bacillus cereus FDA 5. In kind it is cell-based. The note with it: FDA5, agar dilution, DY medium, pH unadjusted, approx. 10^6 CFU/ml, read-out: Minimum Inhibitory Conc. (MIC). The method, then: as §1, §2, §3, §4, §5
The test system of data set [4] is Bacillus megaterium IFO 12108. In kind it is cell-based. The note with it: Priestia megaterium, IFO12108; agar dilution; DY medium, pH unadjusted; approx. 10^6 CFU/ml; read-out: Minimum Inhibitory Conc. (MIC). The protocol: as §1, §2, §3, §4, §5
For data set [5], the system named is Bacillus subtilis NIHJ PCI 219. In kind it is cell-based. The note with it: agar dilution, DY medium, pH unadjusted, approx. 10^6 CFU/ml, read-out: Minimum Inhibitory Conc. (MIC). The protocol: as §1, §2, §3, §4, §5
For data set [6], the system named is Escherichia coli LD-2. In kind it is cell-based. The settings on record: LD2, agar dilution, DY medium, pH unadjusted, approx. 10^6 CFU/ml, read-out: Minimum Inhibitory Conc. (MIC). The method, then:
as §1, §2, §3, §4, §5

For data set [7], the system named is Escherichia coli NIHJ JC 2. In kind it is cell-based. The settings on record: NIHJJC2, agar dilution, DY medium, pH unadjusted, approx. 10^6 CFU/ml, read-out: Minimum Inhibitory Conc. (MIC). The protocol:
as §1, §2, §3, §4, §5

Data set [8] deals with Klebsiella pnemoniae IFO 3317. In kind it is cell-based. The note with it: IFO3317, agar dilution, DY medium, pH unadjusted, approx. 10^6 CFU/ml, read-out: Minimum Inhibitory Conc. (MIC). The protocol:
as §1, §2, §3, §4, §5

Data set [9] deals with Micrococcus luteus IFO 12708. In kind it is cell-based. The note with it: IFO12708, agar dilution, DY medium, pH unadjusted, approx. 10^6 CFU/ml, read-out: Minimum Inhibitory Conc. (MIC). The protocol: as §1, §2, §3, §4, §5
Data set [10] relates to Proteus vulgaris IFO 3988. In kind it is cell-based. The settings on record: IFO3988, agar dilution, DY medium, pH unadjusted, approx. 10^6 CFU/ml, read-out: Minimum Inhibitory Conc. (MIC). The method, then: as §1, §2, §3, §4, §5
In data set [11] the test system is Pseudomonas aeruginosa IFO 3080. In kind it is cell-based. The settings on record: IFO3080, agar dilution, DY medium, pH unadjusted, approx. 10^6 CFU/ml, read-out: Minimum Inhibitory Conc. (MIC). The protocol:
as §1, §2, §3, §4, §5

Data set [12] relates to Salmonella typhimurium IFO 12529. In kind it is cell-based. The note with it: Salmonella enterica; agar dilution; DY medium, pH unadjusted; approx. 10^6 CFU/ml; read-out: Minimum Inhibitory Conc. (MIC). The protocol:
as §1, §2, §3, §4, §5

Data set [13] relates to Staphylococcus aureus FDA 209P. In kind it is cell-based. The settings on record: FDA209P, agar dilution, DY medium, pH unadjusted, approx. 10^6 CFU/ml, read-out: Minimum Inhibitory Conc. (MIC). The protocol:
as §1, §2, §3, §4, §5

In data set [14] the test system is Staphylococcus epidermidis IFO 3762. In kind it is cell-based. The settings on record: IFO3762, agar dilution, DY medium, pH unadjusted, approx. 10^6 CFU/ml, read-out: Minimum Inhibitory Conc. (MIC). The method, then:
as §1, §2, §3, §4, §5

Data set [15] concerns Streptococcus faecalis IFO 3989. In kind it is cell-based. The note with it: Enterococcus faecalis, IFO3989; agar dilution; DY medium, pH unadjusted; approx. 10^6 CFU/ml; read-out: Minimum Inhibitory Conc. (MIC). The method, then:
as §1, §2, §3, §4, §5

Data set [16] can be described thus: Conversion in aqueous solution. In kind it is physicochemical. The note with it: especially aqueous alkaline solution, by HPLC. An excerpt:
For example, in case that the mixture of TAN-1057A and B is isolated as crystals of the sulfate, the ratio of TAN-1057A and B is about 6 to 8:4 to 2.
The term "Antibiotics TAN-1057" in the present specification includes also a mixture which contains TAN-1057A, B, C and D in an optional combination and an optional ratio thereof.

≈ marks a conversion by molar mass, not a printed value. Where only a bound is given, the exact number is not on record here.

In the case of `CN1C(=O)C[C@H](CCCNC(=N)N)NC(=O)[C@H]1CNC(=N)NC(N)=O` [TAN-1057C], the MIC in data set [1] is more than 100 µg/mL; in data set [2], 50 µg/mL (≈ 141 µM); in data set [3], more than 100 µg/mL; in [4], more than 100 µg/mL; in data set [5], more than 100 µg/mL; in data set [6], 50 µg/mL (≈ 141 µM). Further, the MIC was more than 100 µg/mL in data set [7]; more than 100 µg/mL in [8]; 12.5 µg/mL (≈ 35.2 µM) in [9]; more than 100 µg/mL in data set [10]; more than 100 µg/mL in data set [11]; more than 100 µg/mL in [12]. The MIC in data set [13] amounted to 50 µg/mL (≈ 141 µM); in data set [14], 6.25 µg/mL (≈ 17.6 µM); in data set [15], 50 µg/mL (≈ 141 µM). Moreover, in data set [16], the “conversion of TAN-1057C and D” value is given as “converted into TAN-1057B”.
Consider `CN1C(=O)C[C@H](CCCNC(=N)N)NC(=O)[C@@H]1CNC(=N)NC(N)=O` [TAN-1057D], for which the MIC is 25 µg/mL (≈ 70.3 µM) in [1]; 6.25 µg/mL (≈ 17.6 µM) in data set [2]; 25 µg/mL (≈ 70.3 µM) in data set [3]; 12.5 µg/mL (≈ 35.2 µM) in data set [4]; 12.5 µg/mL (≈ 35.2 µM) in [5]; 12.5 µg/mL (≈ 35.2 µM) in data set [6]. In addition, the MIC was more than 100 µg/mL in data set [7]; more than 100 µg/mL in data set [8]; 3.13 µg/mL (≈ 8.81 µM) in data set [9]; more than 100 µg/mL in data set [10]; more than 100 µg/mL in data set [11]; more than 100 µg/mL in [12]. In addition, the minimum inhibitory concentration (MIC) stood at 6.25 µg/mL (≈ 17.6 µM) in [13], 0.78 µg/mL (≈ 2.19 µM) in data set [14] and 12.5 µg/mL (≈ 35.2 µM) in data set [15]. For the same compound, the “conversion of TAN-1057C and D” value in data set [16] is “converted into TAN-1057B and TAN-1057A, respectively”.

A word on the MIC: it is the smallest concentration in the dilution series that meets the test's criterion for growth inhibition.
